Columns and labels:
Assay type in all cases: cell-based, human
[1] = system: tumor of patient suffering from ovarian cancer; assay: ATP-TCA assay of tumor samples of patient one; details: for Initial Therapeutic Index: tumor response curves ranked by AUC-1, high index = more effective
Procedure: Briefly, the ATP-TCA assay is conducted as follows. First, aseptically obtained solid tumor specimens are dispersed using, e.g. surgical scissors and scalpels. Subsequently, tissue fragments of 0.5 to 2 mm in diameter are enzymatically dissociated into a cell suspension of single cells and small aggregates by incubation for 4-18 h in 5-10 ml sterile collagenase-containing enzyme preparation such as tumor dissociation enzyme preparation, TDE. Commercially available from Atlantic Scientific, Fort Lauderdale, Fla., or from DCS Innovative Diagnostic Systeme GmbH, Hamburg, Germany. Alternatively, tissue fragments are dissociated using 1.5 mg/ml collagenase H (Sigma Chemical, St. Lewis, Mo.) or by mechanical desegregation. (see, […] al., 1997, Anticancer Drugs, 8:756-762) After filtration and ficoll-hypaque density centrifugation, e.g. (Lymphoprep®, ICN Flow, […], Germany; Histopaque, Sigma Chemical, St. […] A serum-free Complete Assay medium (CAM) available from DCS Innovative Diagnostik Systeme GmbH, Hamburg, Germany is added and cell suspensions then are adjusted to a final concentration of 1-2×10^5 viable cells per ml. […] Test drug concentrations (TDC) are prepared directly on the plates by serial 1:2-dilutions of the individual stock solutions. […] Appropriate controls, e.g., one with CAM, i.e., no inhibition control, (MO) and the other with Maximum ATP Inhibitor (MI) instead of the cytostatics, can be used in six wells of every culture plate. Subsequently, a sample, e.g. 100 μl of single cell suspension (i.e., 10,000- 20,000 cells) is added to each well. Cultures are incubated at 37° C. and 95% humidity in a 95% air, 5% CO2 atmosphere. After 5-7 days of incubation, another cytological analysis is performed in untreated MO controls. Subsequently, intracellular ATP is extracted and stabilized. Then 50 μl aliquots of each lysate is then transferred to a liminometer, e.g. a LB-953 liminometer (Berthold, Wildbad, Germany). ATP is measured, e.g. by the “firefly” light reaction after automatically pipetting 55 μl of Luciferin-Luciferase-Reagent (Lu-Lu) to each cell extract. Luminescence response expressed as Relative Light Units (RLU=photons/10) is counted for 10 seconds with a 4 second delay. An ATP standard curve is performed for all assays. […] End assays are also sampled for pathology, proof that the final wells after treatment contain tumor not benign cells. The following illustrates assignment of a Preliminary Rank or Order to a drug(s) or agent(s) based on the results of ATP-TCA assays of patient tumors presented in representative FIGS. 4A-C. All ATP-TCA assays were conducted as described previously herein in detail (see also, e.g., Andreotti et al., 1995, Cancer Res. 55:5276-82; Kurbacher et al., 1996, Breast Cancer Res. Treat., 41:161-70). FIG. 4A illustrates assay results were obtained with samples of a tumor of patient […] suffering from ovarian cancer. The results of an ATP-TCA assay are graphically presented (FIG. 4A) as a plot of (TDC) Test Drug Concentration (%) versus Tumor Growth Inhibition (%) (i.e., ATP test activity/ATP control×100%). (Carboplatin is abbreviated in FIGS. 4A-B as CBDCA.) The tumor response curves presented in FIG. 4A are ranked as described herein as if they were reference data. The numerical measure used is the AUC-I test. […] Alternative, the range from the least to the greatest response can be divided into 10 segments and the curves are assigned to their corresponding segments.

[2] = system: tumor of patient also suffering from ovarian cancer; assay: ATP-TCA assay of tumor samples of patient two; details: for Initial Therapeutic Index: indexed as for patient one
Procedure: Briefly, the ATP-TCA assay is conducted as follows. First, aseptically obtained solid tumor specimens are dispersed using, e.g. surgical scissors and scalpels. Subsequently, tissue fragments of 0.5 to 2 mm in diameter are enzymatically dissociated into a cell suspension of single cells and small aggregates by incubation for 4-18 h in 5-10 ml sterile collagenase-containing enzyme preparation such as tumor dissociation enzyme preparation, TDE. Commercially available from Atlantic Scientific, Fort Lauderdale, Fla., or from DCS Innovative Diagnostic Systeme GmbH, Hamburg, Germany. Alternatively, tissue fragments are dissociated using 1.5 mg/ml collagenase H (Sigma Chemical, St. Lewis, Mo.) or by mechanical desegregation. (see, e.g., Myatt et al., 1997, Anticancer Drugs, 8:756-762) After filtration and ficoll-hypaque density centrifugation, e.g. (Lymphoprep®, ICN Flow, Meckenheim, Germany; Histopaque, Sigma Chemical, St. Louis, Mo.), the quality and viability of resultant single cell suspensions are determined e.g., by trypan blue dye exclusion (0.2% Merck, Darmstadt, Germany) and by subsequent cytological examination. A serum-free Complete Assay medium (CAM) available from DCS Innovative Diagnostik Systeme GmbH, Hamburg, Germany is added and cell suspensions then are adjusted to a final concentration of 1-2×10^5 viable cells per ml.
Drug assays can be performed in 96-well polypropylene microtiter plates (round-bottom). Test drug concentrations (TDC) are prepared directly on the plates by serial 1:2-dilutions of the individual stock solutions. Each drug is tested by continuous exposure in triplicate at a number, e.g., six different concentrations ranging from 6.25% to 200% of test drug concentration.
Subsequently, a sample, e.g. 100 μl of single cell suspension (i.e., 10,000- 20,000 cells) is added to each well. Cultures are incubated at 37° C. and 95% humidity in a 95% air, 5% CO2 atmosphere.
After 5-7 days of incubation, another cytological analysis is performed in untreated MO controls. Subsequently, intracellular ATP is extracted and stabilized. Then 50 μl aliquots of each lysate is then transferred to a liminometer, e.g. a LB-953 liminometer (Berthold, Wildbad, Germany). ATP is measured, e.g. by the “firefly” light reaction after automatically pipetting 55 μl of Luciferin-Luciferase-Reagent (Lu-Lu) to each cell extract. Luminescence response expressed as Relative Light Units (RLU=photons/10) is counted for 10 seconds with a 4 second delay. An ATP standard curve is performed for all assays. MO should be greater than 100 pg/ml ATP. Assays showing mean RLU values of less than 20,000 (MO), a MI/MO-ratio>0.01, or evidence of microbiological contamination are regarded as non-evaluable. End assays are also sampled for pathology, proof that the final wells after treatment contain tumor not benign cells.
All ATP-TCA assays were conducted as described previously herein in detail (see also, e.g., Andreotti et al., 1995, Cancer Res. 55:5276-82; Kurbacher et al., 1996, Breast Cancer Res. Treat., 41:161-70).

[3] = system: tumor of a pancreatic cancer patient; assay: ATP-TCA assay of tumor samples of a pancreatic cancer patient; details: pancreatic cancer sample
Procedure: Briefly, the ATP-TCA assay is conducted as follows. First, aseptically obtained solid tumor specimens are dispersed using, e.g. surgical scissors and scalpels. Subsequently, tissue fragments of 0.5 to 2 mm in diameter are enzymatically dissociated into a cell suspension of single cells and small aggregates by incubation for 4-18 h in 5-10 ml sterile collagenase-containing enzyme preparation such as tumor dissociation enzyme preparation, TDE. Commercially available from Atlantic Scientific, Fort Lauderdale, Fla., or from DCS Innovative Diagnostic Systeme GmbH, Hamburg, Germany. Alternatively, tissue fragments are dissociated using 1.5 mg/ml collagenase H (Sigma Chemical, St. Lewis, Mo.) or by mechanical desegregation. […] A serum-free Complete Assay medium (CAM) available from DCS Innovative Diagnostik Systeme GmbH, Hamburg, Germany is added and cell suspensions then are adjusted to a final concentration of 1-2×10^5 viable cells per ml. […] Test drug concentrations (TDC) are prepared directly on the plates by serial 1:2-dilutions of the individual stock solutions. […] Subsequently, a sample, e.g. 100 μl of single cell suspension (i.e., 10,000- 20,000 cells) is added to each well. Cultures are incubated at 37° C. and 95% humidity in a 95% air, 5% CO2 atmosphere. After 5-7 days of incubation, another cytological analysis is performed in untreated MO controls. Subsequently, intracellular ATP is extracted and stabilized. Then 50 μl aliquots of each lysate is then transferred to a liminometer, e.g. a LB-953 liminometer (Berthold, Wildbad, Germany). ATP is measured, e.g. by the “firefly” light reaction after automatically pipetting 55 μl of Luciferin-Luciferase-Reagent (Lu-Lu) to each cell extract. Luminescence response expressed as Relative Light Units (RLU=photons/10) is counted for 10 seconds with a 4 second delay. An ATP standard curve is performed for all assays. MO should be greater than 100 pg/ml ATP. […] End assays are also sampled for pathology, proof that the final wells after treatment contain tumor not benign cells. […] All ATP-TCA assays were conducted as described previously herein in detail (see also, e.g., Andreotti et al., 1995, Cancer Res. 55:5276-82; Kurbacher et al., 1996, Breast Cancer Res. Treat., 41:161-70).

N.N.O=C([O-])C1(C(=O)[O-])CCC1.[Pt+2] [Carboplatin]
activity against this patient's tumor [1]: single best drug | Initial Therapeutic Index [1]: 10 | activity against this patient's tumor [2]: at best moderately active | Initial Therapeutic Index [2]: 5

Nc1ccn([C@@H]2O[C@H](CO)[C@@H](O)C2(F)F)c(=O)n1 [Gemcitabine, gemcitabine]
activity against this patient's tumor [1]: not significantly active | Initial Therapeutic Index [1]: 3 | activity against this patient's tumor [2]: at best moderately active | Initial Therapeutic Index [2]: 3 | Initial Therapeutic Index [3]: 3 | activity against this tumor [3]: not significantly active

CC(=O)O[C@H]1C(=O)[C@@]2(C)[C@H]([C@H](OC(=O)c3ccccc3)[C@]3(O)C[C@H](OC(=O)[C@H](O)[C@@H](NC(=O)c4ccccc4)c4ccccc4)C(C)=C1C3(C)C)[C@]1(OC(C)=O)CO[C@@H]1C[C@@H]2O [Taxol, paclitaxel]
activity against this patient's tumor [1]: not significantly active | Initial Therapeutic Index [1]: 2 | activity against this patient's tumor [2]: single best drug | Initial Therapeutic Index [2]: 8

N.N.[Cl][Pt][Cl] [DDP, cisplatin]
Initial Therapeutic Index [3]: 2 | activity against this tumor [3]: not significantly active

From patent US20060058966A1, “Methods and systems for guiding selection of chemotherapeutic agents” (priority 2004, published 2006)
